Laboratory results as given in PubChem BioAssay (NCI).
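Protocol summary: plate cells (96-well), add compound at 5 concentrations, incubate 48 h, interpolate endpoints linearly. The concentration for 50% growth inhibition is given as GI50. At the TGI there is no net growth.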

Legend:
Test in all cases: inhibition of tumour cell growth, NCI panel, 48 h
EKVX NSCLC = system: EKVX NSCLC
HT29 colon = system: HT29 colon
K-562 leukemia = system: K-562 leukemia
MDA-MB-231 breast = system: MDA-MB-231 breast
NCI-H460 lung = system: NCI-H460 lung
OVCAR-3 ovarian = system: OVCAR-3 ovarian
SF-268 CNS = system: SF-268 CNS
SK-MEL-28 melanoma = system: SK-MEL-28 melanoma
SNB-19 CNS = system: SNB-19 CNS
SW-620 colon = system: SW-620 colon

SMILES | GI50 (EKVX NSCLC) [µM] | TGI (EKVX NSCLC) [µM] | GI50 (HT29 colon) [µM] | TGI (HT29 colon) [µM] | GI50 (K-562 leukemia) [µM] | TGI (K-562 leukemia) [µM] | GI50 (MDA-MB-231 breast) [µM] | TGI (MDA-MB-231 breast) [µM] | GI50 (NCI-H460 lung) [µM] | TGI (NCI-H460 lung) [µM] | GI50 (OVCAR-3 ovarian) [µM] | TGI (OVCAR-3 ovarian) [µM] | GI50 (SF-268 CNS) [µM] | TGI (SF-268 CNS) [µM] | GI50 (SK-MEL-28 melanoma) [µM] | TGI (SK-MEL-28 melanoma) [µM] | GI50 (SNB-19 CNS) [µM] | TGI (SNB-19 CNS) [µM] | GI50 (SW-620 colon) [µM] | TGI (SW-620 colon) [µM]
COc1cc(OCCCN2CCCC2)ccc1Nc1ncc(Cl)c(Nc2ccccc2P(C)(C)=O)n1 | 0.828 | > 20.5 | 0.521 | 3.79 | 4.43 | 28.5 | 1.56 | 11.7 | 2.47 | 12 | 2.75 | 12 | 2.49 | 10.6 | 6.34 | 26.6 | 4.11 | 34.3 | 1.37 | 5.36
COc1ccc(-c2c(NC(=O)Nc3ccc(Cl)c(C(F)(F)F)c3)cnn2-c2ccc(S(N)(=O)=O)cc2)cc1 | 3.77 | 16.4 | 3.59 | 10.9 | 3.13 | 16.9 | 2.04 | 4.72 | 3.5 | 10.4 | 2.4 | 6.53 | 3.34 | 14.7 | 3.73 | 13.7 | 3.85 | 14.7 | 3.86 | 13.8
C=C[C@@H]1CCC/C=C/[C@@H]2C[C@H](O)C[C@H]2[C@H](O)/C=C/C(=O)O1 | 0.543 | > 100 | 0.342 | 1.6 | 3.18 | > 100 | 0.379 | 1.11 | 3.76 | > 100 | 0.427 | 4.18 | 0.44 | > 100 | 0.34 | 1.2 | 1.45 | > 100 | 0.361 | 1.57
FC(F)(F)c1cccc(Oc2ccc(Nc3ncnc4ccc(OCCCN5CCOCC5)cc34)cc2Cl)c1 | 0.872 | 8.47 | 1.75 | 3.93 | 1.5 | 5.47 | 1.8 | 3.72 | 1.9 | 3.56 | 1.46 | 3.56 | 2.06 | 6.82 | 1.64 | 3.01 | 2.34 | 7.15 | 1.69 | 3.23
O=C(Nc1ccc(Cl)cc1)c1cc(NCc2cc(O)ccc2O)ccc1O | 5.5 | 23.7 | 22.2 | 58.5 | 2.65 | 8.53 | 3.49 | 13.6 | 13.3 | 33.2 | 2.9 | 9.9 | 3.04 | 14 | 10.1 | 22.4 | 8.33 | 21.2 | 4.14 | 22.8
COc1ccc2c(c1)c1ccc3c(c1n2C)C(=O)C=CC3=O |  | 35.7 |  | 34.9 |  | 4.89 |  | 12.1 |  | 61.2 |  | 20.5 |  | 31.8 |  | 22.5 |  | 53 |  | 10.7
O=c1cccccc1O |  | > 100 |  | > 100 |  | > 100 |  | > 100 |  | > 100 |  | > 100 |  | > 100 |  | > 100 |  | > 100 |  | > 100
C[C@]12CC[C@@H]3c4ccc(O)cc4CC[C@H]3[C@@H]1CC(Cc1ccccc1)(Cc1ccccc1)C2=O | 10.9 | 24.7 | 6.04 | 20.6 | 16.2 | > 100 | 14.1 | 28.5 | 12.1 | 38.1 | 16 | 38.3 | 21.2 | 58.3 | 19.8 | 36.9 | 18 | 34.5 | 14.2 | 30
Cc1cc2[nH]c(=O)c3c4ncccc4cn3c2cc1C | > 100 | > 100 | 2.98 | > 100 | 2.54 | > 100 | 4.64 | > 100 | 2.17 | 6.2 | 2.02 | 4.33 | 3.44 | > 100 | 4.7 | > 100 | 5.48 | > 100 | 2.89 | > 100
COc1cccc(C2SC(C)C(=O)N2NC(=O)C(O)c2ccccc2)c1 (centres undefined) | > 100 | > 100 | > 100 | > 100 | > 100 | > 100 | > 100 | > 100 | > 100 | > 100 | > 100 | > 100 | > 100 | > 100 | > 100 | > 100 | > 100 | > 100 | > 100 | > 100
CC(C)(C)c1cc[n+](C[n+]2ccc(C(C)(C)C)cc2)cc1 |  | > 100 |  | > 100 |  | > 100 |  | > 100 |  | > 100 |  | > 100 |  | > 100 |  | > 100 |  | > 100 |  | > 100
NC(=O)c1ccc(I)c([N+](=O)[O-])c1 | 27.1 | > 65 | 58 | > 100 | 30.2 | > 79.9 | 49.5 | > 100 | > 100 | > 100 | 55 | > 100 | > 100 | > 100 | 98.7 | > 100 | > 100 | > 100 | > 100 | > 100
COc1cc(/C=C2\C[C@H]3[C@@H]4CC=C5C[C@@H](O)CC[C@]5(C)[C@H]4CC[C@]3(C)[C@H]2O)ccc1OCCN1CCCCC1 | 1.67 | 9.62 | 1.54 | > 50 | 0.491 | 1.32 | 0.605 | 1.39 | 1.21 | 3.62 | 0.772 | 1.53 | 1.74 | 12.5 | 1.06 | > 50 | 2.17 | > 50 | 0.76 | 
O=c1oc2ccc(F)cc2c(=O)n1-c1ccc(I)cc1F | 0.831 | 7.27 | 3.29 | > 33 | 0.397 | > 100 | 0.614 | 3.61 | 0.404 | 9.85 | 0.37 | 6.36 | 0.435 | 8.25 | 0.392 | 1.89 | 0.409 | > 54.3 | 0.584 | 13.3
